# Measurements: patent publication US20100280021A1, “PYRIDOPYRIMIDINE PROTEIN TYROSINE PHOSPHATASE INHIBITORS” (priority 2005, published 2010)
# Target: T1, Human PTP1B (1-321) (Homo sapiens, UniProt P18031)
# T1 construct: Human PTP1B (1-321) was cloned from a human cDNA library; made in house; host or cells: E. coli
# T1 sequence (P18031 1-321): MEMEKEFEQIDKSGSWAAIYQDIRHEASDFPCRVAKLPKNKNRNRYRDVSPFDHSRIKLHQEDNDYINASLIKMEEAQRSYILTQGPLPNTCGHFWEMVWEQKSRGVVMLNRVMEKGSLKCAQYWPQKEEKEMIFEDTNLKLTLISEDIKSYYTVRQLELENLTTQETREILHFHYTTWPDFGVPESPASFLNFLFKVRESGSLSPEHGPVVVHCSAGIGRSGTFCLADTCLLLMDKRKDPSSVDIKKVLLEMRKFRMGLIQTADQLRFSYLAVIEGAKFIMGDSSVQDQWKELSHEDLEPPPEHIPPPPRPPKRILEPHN
# Assay: In vitro inhibition of PTP1B (PTPase assays: Malachite Green phosphopeptide method or DiFMUP method)
# Type: biochemical
# Settings: PTP1B inhibitory activity
# Method: Human PTP1B (1-321) was cloned from a human cDNA library using conventional molecular biology techniques. The cDNA sequence was identical to the published human PTP1B sequence (Accession number M33689). The protein was expressed and purified from E. coli as described by Barford D. et. al J. Mol. Biol (1994) 239, 726-730.
# The measurement of PTPase activity was carried out using one of two methods:
# The first method for the measurement of PTP1B inhibitory activity a tyrosine phosphorylated peptide based on the amino acid sequence of insulin receptor tyrosine autophosphorylation site 1146 (TRDI(pY)E) was used as substrate. The reaction conditions were as follows:
# PTP1B (0.5-2 nM) was incubated with compound for 15 min in buffer containing 37.5 mM Bis-Tris buffer pH 6.2, 140 mMNaCl, 0.05% BSA and 2 mM DTT. The reaction was started by the addition of 50 μM substrate. After 20 min at room temperature (22-25° C.), the reaction was stopped with KOH and the amount of free phosphate measured using Malachite Green as previously described (Harder et al. 1994 Biochem J. 298; 395).
# The second method was used for the measurement of general PTPase inhibitory activity across a panel of PTPases the substrate (6,8-difluoro-4-methylumbelliferyl phosphate (DiFMUP; from Molecular Probes) was used at the Km for each enzyme. The buffer conditions were identical as in the Malachite Green assay. The reaction was stopped with KOH. In this case the dephosphoryated product becomes fluorescent and the fluorescense read (Excitiation: […]/Emmission: 460 nM).
# The following Table lists IC50 results for several of the above exemplified compounds: […]
row,IC50 [nM],Structure (SMILES)
1,2050,"CNc1nc(N)nc2nc(-c3c(N4CCC(Cc5ccccc5)CC4)cccc3C(F)(F)F)ccc12 [Example 121, 7-[2-(4-Benzyl-piperidin-1-yl)-6-trifluoromethyl-phenyl]-N4-methyl-pyrido[2,3-d]pyrimidine-2,4-diamine]"
2,10800,"CNc1nc(N)nc2nc(C3(c4ccccc4)CCCCC3)ccc12 [Example 59, N4-Methyl-7-(1-phenyl-cyclohexyl)-pyrido[2,3-d]pyrimidine-2,4-diamine]"
3,800,"CNc1nc(N)nc2nc(-c3c(N4C(C)CCC4C)cccc3C(F)(F)F)ccc12 (stereo not drawn) [Example 107, 7-[2-(2,5-Dimethyl-pyrrolidin-1-yl)-6-trifluoromethyl-phenyl]-N4-methyl-pyrido[2,3-d]pyrimidine-2,4-diamine]"
4,52400,"CNc1nc(N)nc2nc(-c3ccccc3)cc(-c3ccccc3)c12 [Example 139, N*4*-Methyl-5,7-diphenyl-pyrido[2,3-d]pyrimidine-2,4-diamine]"
5,1660,"CNc1nc(N)nc2nc(-c3ccccc3C)ccc12 [Example 1, N4-Methyl-7-o-tolyl-pyrido[2,3-d]pyrimidine-2,4-diamine]"
6,170,"CNc1nc(N)nc2nc(-c3c(Oc4ccccc4)cccc3C(F)(F)F)ccc12 [Example 80, N4-Methyl-7-(2-phenoxy-6-trifluoromethyl-phenyl)-pyrido[2,3-d]pyrimidine-2,4-diamine]"
7,1410,"CNc1nc(N)nc2nc(C3CCCCC3)ccc12 [Example 9, 7-Cyclohexyl-N4-methyl-pyrido[2,3-d]pyrimidine-2,4-diamine]"
8,2560,"CNc1nc(N)nc2nc(-c3ccccc3)c(-c3ccccc3)cc12 [Example 14, N4-Methyl-6,7-diphenyl-pyrido[2,3-d]pyrimidine-2,4-diamine]"
9,4220,"CNc1nc(N)nc2nc3c(cc12)CCc1ccccc1-3 [Example 27, N8-Methyl-5,6-dihydro-benzo[h]pyrimido[4,5-b]quinoline-8,10-diamine]"
10,510,"CNc1nc(N)nc2nc(-c3c(Cl)cccc3Cl)ccc12 [Example 3, 7-(2,6-Dichloro-phenyl)-N4-methyl-pyrido[2,3-d]pyrimidine-2,4-diamine]"
11,3570,"CNc1nc(N)nc2nc(-c3cccs3)ccc12 [Example 13, N4-Methyl-7-thiophen-2-yl-pyrido[2,3-d]pyrimidine-2,4-diamine]"
12,250,"CNc1nc(N)nc2nc(-c3ccccc3C(F)(F)F)c(C(=O)O)cc12 [Example 56, 2-Amino-4-methylamino-7-(2-trifluoromethyl-phenyl)-pyrido[2,3-d]pyrimidine-6-carboxylic acid]"
13,1150,"CNc1nc(N)nc2nc(-c3cccc4ccccc34)ccc12 [Example 28, N4-Methyl-7-naphthalen-1-yl-pyrido[2,3-d]pyrimidine-2,4-diamine]"
14,2330,"CNc1nc(N)nc2nc(-c3c(F)cccc3N3CCOCC3)ccc12 [Example 92, 7-(2-Fluoro-6-morpholino-4-yl-phenyl)-N4-methyl-pyrido[2,3-d]pyrimidine-2,4-diamine]"
15,300,"CNc1nc(N)nc2nc(-c3c(N4CCN(C(=O)c5ccco5)CC4)cccc3C(F)(F)F)ccc12 [Example 116, {4-[2-(2-Amino-4-methylamino-pyrido[2,3-d]pyrimidin-7-yl)-3-trifluoromethyl-phenyl]-piperazin-1-yl}-furan-2-yl-methanone]"
